Series [1] deals with caspase-3. Kind of series: Motor neuron culture with Aβ1-42 insult: caspase-3 induction. Type of series: cell-based, rat. The note with it: all 3 concentrations, greatest effect at 100 nM; control increased by 91%. As to the method: Primary motor neuron (MN) cultures generated from rat spinal cord were treated with 20 μM amyloid beta 1-42 peptide (Aβ1-42). This insult causes an acute increase in TDP-43 levels in the cells and serves as a model for the TDP-43 mislocalisation, aggregation and toxicity observed in the motor neurons of ALS patients (reviewed in Callizot et al, poster “Amyloid peptide and cytoplasmic TDP-43 accumulation in pathogenesis of ALS: an in vitro study”, http://www.neuro-sys.fr/IMG/pdf/poster_adpd2017_tdp43.pdf). This model was used to determine the effect of tacrolimus on TDP-43 toxicity in motor neurons.
A separate group of cells was incubated with a) mouse monoclonal anti-microtubule-associated-protein 2 (MAP-2) antibody, and b) rabbit polyclonal anti-caspase-3 antibody. This group was used to determine the number of caspase-3-positive MN, i.e. the number of overlapping MAP-2 and caspase-3-positive cells.

Series [2] relates to unilaterally 6-OHDA-lesioned rats. As to the kind of experiment: Amphetamine-induced rotational asymmetry in unilaterally 6-OHDA-lesioned rats. Type of series: in vivo, rat. The conditions noted are these: 1 mg/kg s.c. 6 days/week, by 6 months, compared to baseline; p<0.05 vs. vehicle at 6 months. An excerpt:
The objective of this study was to investigate the effect of chronic subcutaneous (s.c) tacrolimus treatment in an aged rat model of Parkinson's disease. Lesion of dopaminergic projections was created by unilateral injection of 6-hydroxydopamine (6-OHDA) in the right medial forebrain bundle (MFB), causing a widespread de-afferentation of substantia nigra pars compacta (SNc) and ventral tegmental area (VTA) terminal fields. The animals can then be monitored for amphetamine-induced rotation asymmetry behaviour: because the lesion is unilateral, asymmetric movement is observed. The degree to which a drug treatment is able to counteract the effects of the lesion can be measured by the reduction in the asymmetry of movement (i.e. the number of clockwise (CW) rotations vs. the number of counterclockwise (CCW) rotations). 50 female Fischer rats aged 18 months were stereotactically injected with 4 μl […] 6-OHDA into the right MFB. […] Motor asymmetry was monitored in automated rotometer bowls (TSE Systems, Germany) for 120 minutes after injection of amphetamine (2.5 mg/kg s.c.). The net rotation asymmetry score for amphetamine test was calculated by subtracting contralateral turns from the ipsilateral turns to the lesion side.

Series [3] can be described thus: Tacrolimus blood levels in healthy human volunteers given capsule. Type of series: in vivo. The note with it: oral. As to the method:
A hard gelatine capsule was filled with the following composition:
One capsule as above containing 0.3 mg tacrolimus was administered daily to healthy human volunteers for three successive days. […] Similarly, no change in TNF-α levels occurred as a result of administering 0.6 mg daily of tacrolimus to healthy volunteers. The average trough level of tacrolimus (level after 24 hours of administration of each dose) observed was approximately 220 pg/ml.

In series [4] the test system is C. elegans expressing human alpha-synuclein in the body wall muscle. As to the kind of experiment: C. elegans lifespan assay, alpha-synuclein strain. The conditions noted are these: p<0.05 DMSO vs. Tacrolimus. Type of series: in vivo, Caenorhabditis elegans. Here is the method:
(§1) Tacrolimus was tested in a number of disease models using the nematode worm, Caenorhabditis elegans, in which aggregate-prone proteins associated with neurodegenerative diseases are expressed in certain cell types. The effect of tacrolimus was determined by measuring the lifespan of worms in the presence and absence of tacrolimus, using the following general methodology. All of the worms tested using these assays also contained, in addition to the transgene expressing the disease-related protein, a mutation in the bus-5 gene which confers drug-sensitivity.
(§2) C. elegans cultures were synchronised by incubating an asynchronous culture in basic sodium hypochlorite solution to kill everything but the bleach-resistant mature eggs. The eggs were added on to agar plates and then allowed to hatch and develop in the presence of the test compound (or vehicle) and bacterial food source. […] From this point on, each ageing population was inspected at regular intervals (e.g. daily) and viability assessed by counting the number of dead worms.
(§3) The cumulative number of dead worms for each population was used to generate a survival/viability plot to determine chronological lifespan (CLS). Survival was analysed using the Kaplan-Meier log-rank survival analysis method, using the Online Application for Survival (OASIS; see http://sbi.postech.ac.kr/oasis). […]

In series [5] the test system is C. elegans expressing YFP alone (Q0) in the body wall muscle. Kind of series: C. elegans lifespan assay, YFP alone (Q0) strain. Type of series: in vivo, Caenorhabditis elegans. The conditions noted are these: p<0.05 vs. Q0 DMSO. As to the method:
as §1, §2, §3

The results in this text go back to patent publication US20180085356A1, “METHOD OF TREATING DISEASE CHARACTERISED BY PROTEIN AGGREGATE DEPOSITION IN NEURONAL CELLS” (CHRONOS THERAPEUTICS LIMITED, priority 2013, published 2018).

Molecules are shown by their SMILES. Read-outs that look alike come from different tables or passages of the source.

Usually AUC stands for the area under the concentration-time curve, a measure of exposure.

Take `C=CC[C@@H]1/C=C(\C)C[C@H](C)C[C@H](OC)[C@H]2O[C@@](O)(C(=O)C(=O)N3CCCC[C@H]3C(=O)O[C@H](/C(C)=C/[C@@H]3CC[C@@H](O)[C@H](OC)C3)[C@H](C)[C@@H](O)CC1=O)[C@H](C)C[C@@H]2OC` [tacrolimus, Tacrolimus]: the “caspase-3 levels in response to Aβ1-42 insult” value in series [1] is reported as “increase was less”. In addition, the amphetamine-induced rotational asymmetry result in series [2] is “significant reduction in rotational asymmetry”. Further, the average peak level result in series [3] (0.3 mg capsule daily, three days) is given as “approximately 3700 pg/mL”. For the same molecule, the concentration at 24 h in series [3] (human, blood, two capsules, single dose of 0.6 mg, read-out: expected trough level) is roughly 0.44 ng/mL; in series [3] (human, blood, 0.3 mg capsule daily, three days, read-out: average trough level (after 24 hours of administration of each dose)) it was roughly 0.22 ng/mL. The AUC in series [3] (human, blood, 0.3 mg capsule daily, three days, read-out: average area under the curve AUC 0_t) was roughly 23.5 ng·h/mL. The figures for the lifespan entry in series [4] and in series [5] were “significantly increasing the lifespan” and “significantly increases lifespan”, respectively.
